Results: patent publication US9073876B2, “Flap modulators” (JANSSEN PHARMACEUTICA NV, priority 2013, dated 2015)

How the values were obtained:
[1] = system: leukotriene pathway in human whole blood (LTB4 levels); assay: Human whole blood assay (LTB4); assay type: cell-based; conditions: human whole blood diluted 1:1 in RPMI, stimulated with calcium ionophore A23187; single replicate
Experimental: The ability of the compounds of the present invention to treat a FLAP-mediated disease and/or disorder, or associated symptoms or complications thereof, was determined using the following procedures. Binding assay data represent the average value obtained from two different assay plates, with samples run in duplicate on each plate. Human whole blood assay data represent a single replicate on an assay plate using whole blood from at least one healthy donor.
An in vitro cellular assay was performed using human whole blood collected in heparin-containing tubes, which was used to test the ability of compounds to modulate the leukotriene pathway in human whole blood. The blood was diluted 1:1 in RPMI medium, pre-incubated for 15 min at 37° Celsius with test compounds at various concentrations, and then stimulated with calcium ionophore, A23187 (7 μg/mL), for 30 min at 37° Celsius. The samples were then centrifuged and plasma was removed. The plasma was diluted in assay buffer and LTB4 levels were measured using a commercial kit (Enzo Life Sciences). The concentration of each compound that was required for half-maximal inhibition (modulation) of recombinant enzyme activity (IC50) was calculated by a 4-parameter equation using the program GraphPad Prism (GraphPad software).

human FLAP = human FLAP (Homo sapiens (Human), UniProt P20292); assay: FLAP binding assay (HTRF); conditions: human FLAP-containing membranes, HTRF format; average of two assay plates, duplicates; read-out: FLAP Binding wild type HTRF Ki
Procedure, shortened: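 Read-out is the HTRF ratio. Each reported figure averages two assay plates on which samples were tested in duplicate.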

Chain of human FLAP (P20292 whole entry): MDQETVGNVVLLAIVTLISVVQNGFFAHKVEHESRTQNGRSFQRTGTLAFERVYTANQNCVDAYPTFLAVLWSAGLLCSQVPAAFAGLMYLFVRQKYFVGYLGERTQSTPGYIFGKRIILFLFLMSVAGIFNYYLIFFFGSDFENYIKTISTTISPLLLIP

For `Nc1cnc(-c2ccc(C3CCC3)c(OCc3c(F)cccc3F)c2F)cn1` [Example 31, 5-{4-Cyclobutyl-3-[(2,6-difluorobenzyl)oxy]-2-fluorophenyl}pyrazin-2-amine], the IC50 [1] was 1960 nM and the Ki (human FLAP) was 170 nM.
For `Nc1cnc(-c2ccc(C3CCC3)c(OCc3ccccc3Cl)c2F)cn1` [Example 34, 5-{3-[(2-Chlorobenzyl)oxy]-4-cyclobutyl-2-fluorophenyl}pyrazin-2-amine], the IC50 [1] was 1570 nM and the Ki (human FLAP) was 304 nM.
Work on `Nc1cnc(-c2ccc(C3CCC3)c(OCc3cccc(Cl)c3)c2F)cn1` [Example 35, 5-{3-[(3-Chlorobenzyl)oxy]-4-cyclobutyl-2-fluorophenyl}pyrazin-2-amine] yielded an IC50 [1] of 1140 nM and a Ki (human FLAP) of 173 nM.
With `Nc1cnc(-c2ccc(C3CCC3)c(OCc3ccc(Cl)cc3)c2F)cn1` [Example 36, 5-{3-[(4-Chlorobenzyl)oxy]-4-cyclobutyl-2-fluorophenyl}pyrazin-2-amine] the IC50 [1] was 2540 nM and the Ki (human FLAP) was 220 nM.
`Nc1cnc(-c2ccc(C3CCC3)c(OCc3c(Cl)cccc3Cl)c2F)cn1` [Example 37, 5-{4-Cyclobutyl-3-[(2,6-dichlorobenzyl)oxy]-2-fluorophenyl}pyrazin-2-amine] was tested, and the IC50 [1] was 2500 nM and the Ki (human FLAP) was 250 nM.
For `Cc1ccc(COc2c(C3CCC3)ccc(-c3cnc(N)cn3)c2F)cc1C` [Example 41, 5-{4-Cyclobutyl-3-[(3,4-dimethylbenzyl)oxy]-2-fluorophenyl}pyrazin-2-amine], the IC50 [1] was 1350 nM and the Ki (human FLAP) was 250 nM.
With `Nc1cnc(-c2ccc(C3CCC3)c(OCc3cc(F)ccc3Cl)c2F)cn1` [Example 45, 5-{3-[(2-Chloro-5-fluorobenzyl)oxy]-4-cyclobutyl-2-fluorophenyl}pyrazin-2-amine] the IC50 [1] was 720 nM and the Ki (human FLAP) was 193 nM.
`Nc1cnc(-c2ccc(C3CCC3)c(OCc3ccccc3C(=O)O)c2F)cn1` [Example 46, 2-{[3-(5-Aminopyrazin-2-yl)-6-cyclobutyl-2-fluorophenoxy]methyl}benzoic acid] gave an IC50 [1] of 5620 nM and a Ki (human FLAP) of 8 nM.
With `Cn1ccc(COc2c(C3CCC3)ccc(-c3cnc(N)cn3)c2F)n1` [Example 47, 5-{4-Cyclobutyl-2-fluoro-3-[(1-methyl-1H-pyrazol-3-yl)methoxy]phenyl}pyrazin-2-amine] the IC50 [1] was 300 nM and the Ki (human FLAP) was 42 nM.
`Cc1ccnc(Oc2c(C3CCC3)ccc(-c3cnc(N)cn3)c2F)n1` [Example 69, 5-{4-cyclobutyl-2-fluoro-3-[(4-methylpyrimidin-2-yl)oxy]phenyl}pyrazin-2-amine] was tested, and the IC50 [1] was 73.9 nM and the Ki (human FLAP) was 30 nM.
`Nc1cnc(-c2ccc(C3CCC3)c(OCC3CC3)c2F)cn1` [Example 72, 5-[4-Cyclobutyl-3-(cyclopropylmethoxy)-2-fluorophenyl]pyrazin-2-amine] showed an IC50 [1] of 737 nM and a Ki (human FLAP) of 18 nM.
In the case of `COc1ccc(S(F)(F)(F)(F)F)cc1COc1c(C2CCC2)ccc(-c2cnc(N)cn2)c1F` [Example 76, 5-(4-Cyclobutyl-2-fluoro-3-{[2-methoxy-5-(pentafluoro-lambda~6~- sulfanyl)benzyl]oxy}phenyl)pyrazin-2-amine], the IC50 [1] is reported as 1770 nM and the Ki (human FLAP) is reported as 250 nM.
For `Nc1cnc(-c2ccc(C3CCC3)c(OCc3ccc(S(F)(F)(F)(F)F)cc3F)c2F)cn1` [Example 78, 5-(4-Cyclobutyl-2-fluoro-3-{[2-fluoro-4-(pentafluoro-lambda~6~- sulfanyl)benzyl]oxy}phenyl)pyrazin-2-amine], the IC50 [1] was 1290 nM and the Ki (human FLAP) was 173 nM.
In the case of `Nc1cnc(-c2ccc(C3CCC3)c(OCc3ccc(S(F)(F)(F)(F)F)cc3)c2F)cn1` [Example 79, 5-(4-Cyclobutyl-2-fluoro-3-{[4-(pentafluoro-lambda~6~- sulfanyl)benzyl]oxy}phenyl)pyrazin-2-amine], the IC50 [1] is reported as 2230 nM and the Ki (human FLAP) is reported as 250 nM.
For `Nc1cnc(-c2ccc(C3CCC3)c(OCc3cccc(S(F)(F)(F)(F)F)c3)c2F)cn1` [Example 80, 5-(4-Cyclobutyl-2-fluoro-3-{[3-(pentafluoro-lambda~6~- sulfanyl)benzyl]oxy}phenyl)pyrazin-2-amine], the IC50 [1] was 3290 nM and the Ki (human FLAP) was 304 nM.
With `Nc1cnc(-c2ccc(C3CCC3)c(OCc3ccccc3)c2F)cn1` [Example 83, 5-[3-(Benzyloxy)-4-cyclobutyl-2-fluorophenyl]-pyrazin-2-amine] the IC50 [1] was 605 nM and the Ki (human FLAP) was 37 nM.
In the case of `Nc1cnc(-c2ccc(C3CCC3)c(OCCc3ccc(C(=O)O)cc3)c2F)cn1` [Example 84, 4-{2-[3-(5-Aminopyrazin-2-yl)-6-cyclobutyl-2-fluorophenoxy]ethyl}benzoic acid], the IC50 [1] is reported as 886 nM and the Ki (human FLAP) is reported as 70 nM.
Compound `Cc1cc(N)nc(Oc2c(C3CCC3)ccc(-c3cnc(N)cn3)c2F)n1` [Example 86, 2-[3-(5-Aminopyrazin-2-yl)-6-cyclobutyl-2-fluorophenoxy]-6-methylpyrimidin-4-amine] has an IC50 [1] of 35.1 nM and a Ki (human FLAP) of 5 nM.
Compound `Nc1cnc(-c2ccc(C3CCC3)c(Oc3nccc(-c4ccccc4)n3)c2F)cn1` [Example 87, 5-{4-Cyclobutyl-2-fluoro-3-[(4-phenylpyrimidin-2-yl)oxy]phenyl}pyrazin-2-amine] has an IC50 [1] of 6.7 nM and a Ki (human FLAP) of 1 nM.
In the case of `CSc1ccnc(Oc2c(C3CCC3)ccc(-c3cnc(N)cn3)c2F)n1` [Example 88, 5-(4-Cyclobutyl-2-fluoro-3-{[4-(methylsulfanyl)pyrimidin-2-yl]oxy}phenyl)pyrazin-2-amine], the IC50 [1] is reported as 36.1 nM and the Ki (human FLAP) is reported as 4 nM.
Work on `Cc1cc(C)nc(Oc2c(C3CCC3)ccc(-c3cnc(N)cn3)c2F)n1` [Example 89, 5-{4-Cyclobutyl-3-[(4,6-dimethylpyrimidin-2-yl)oxy]-2-fluorophenyl}pyrazin-2-amine] yielded an IC50 [1] of 22.2 nM and a Ki (human FLAP) of 4 nM.
In the case of `Nc1cnc(-c2ccc(C3CCC3)c(Oc3nccc(-c4cccs4)n3)c2F)cn1` [Example 91, 5-{4-Cyclobutyl-2-fluoro-3-[(4-thiophen-2-ylpyrimidin-2-yl)oxy]phenyl}pyrazin-2-amine], the IC50 [1] is reported as 4.8 nM and the Ki (human FLAP) is reported as 1 nM.
`COc1ccnc(Oc2c(C3CCC3)ccc(-c3cnc(N)cn3)c2F)n1` [Example 93, 5-{4-Cyclobutyl-2-fluoro-3-[(4-methoxypyrimidin-2-yl)oxy]phenyl}pyrazin-2-amine] gave an IC50 [1] of 30.8 nM and a Ki (human FLAP) of 3 nM.
With `COc1cnc(Oc2c(C3CCC3)ccc(-c3cnc(N)cn3)c2F)nc1` [Example 94, 5-{4-Cyclobutyl-2-fluoro-3-[(5-methoxypyrimidin-2-yl)oxy]phenyl}pyrazin-2-amine] the IC50 [1] was 101 nM and the Ki (human FLAP) was 27 nM.
In the case of `CS(=O)(=O)c1ccnc(Oc2c(C3CCC3)ccc(-c3cnc(N)cn3)c2F)n1` [Example 95, 5-(4-Cyclobutyl-2-fluoro-3-{[4-(methylsulfonyl)pyrimidin-2-yl]oxy}phenyl)pyrazin-2-amine], the IC50 [1] is reported as > 1000 nM and the Ki (human FLAP) is reported as 5 nM.
Compound `Cc1cc(Oc2c(C3CCC3)ccc(-c3cnc(N)cn3)c2F)nc(N)n1` [Example 96, 4-[3-(5-aminopyrazin-2-yl)-6-cyclobutyl-2-fluorophenoxy]-6-methylpyrimidin-2-amine] has an IC50 [1] of 33.8 nM and a Ki (human FLAP) of 7 nM.
`COc1cc(Oc2c(C3CCC3)ccc(-c3cnc(N)cn3)c2F)ncn1` [Example 97, 5-{4-Cyclobutyl-2-fluoro-3-[(6-methoxypyrimidin-4-yl)oxy]phenyl}pyrazin-2-amine] gave an IC50 [1] of 153 nM and a Ki (human FLAP) of 32 nM.
`Nc1cnc(-c2ccc(C3CCC3)c(Oc3cc(O)ncn3)c2F)cn1` [Example 98, 6-[3-(5-Aminopyrazin-2-yl)-6-cyclobutyl-2-fluorophenoxy]pyrimidin-4-ol] gave an IC50 [1] of 175 nM and a Ki (human FLAP) of 8 nM.
`COc1cc(Oc2c(C3CCC3)ccc(-c3cnc(N)cn3)c2F)nc(N)n1` [Example 99, 4-[3-(5-Aminopyrazin-2-yl)-6-cyclobutyl-2-fluorophenoxy]-6-methoxypyrimidin-2-amine] gave an IC50 [1] of 40.7 nM and a Ki (human FLAP) of 6 nM.
`COc1nc(N)cc(Oc2c(C3CCC3)ccc(-c3cnc(N)cn3)c2F)n1` [Example 100, 6-[3-(5-Aminopyrazin-2-yl)-6-cyclobutyl-2-fluorophenoxy]-2-methoxypyrimidin-4-amine] showed an IC50 [1] of 12.6 nM and a Ki (human FLAP) of 1 nM.
Work on `N#Cc1ccc(Oc2c(C3CCC3)ccc(-c3cnc(N)cn3)c2F)cc1` [Example 101, 4-[3-(5-Aminopyrazin-2-yl)-6-cyclobutyl-2-fluorophenoxy]benzonitrile] yielded an IC50 [1] of 914 nM and a Ki (human FLAP) of 23 nM.
`Nc1cnc(-c2ccc(C3CCC3)c(Oc3cccc(C(F)(F)F)n3)c2F)cn1` [Example 102, 5-(4-Cyclobutyl-2-fluoro-3-{[6-(trifluoromethyl)pyridin-2-yl]oxy}phenyl)pyrazin-2-amine] gave an IC50 [1] of 103 nM and a Ki (human FLAP) of 2 nM.
In the case of `COC(=O)c1ccc(Oc2c(C3CCC3)ccc(-c3cnc(N)cn3)c2F)cc1` [Example 103, Methyl 4-[3-(5-aminopyrazin-2-yl)-6-cyclobutyl-2-fluorophenoxy]benzoate], the IC50 [1] is reported as 675 nM and the Ki (human FLAP) is reported as 35 nM.
`Nc1cnc(-c2ccc(C3CCC3)c(Oc3ncc(C(F)(F)F)cn3)c2F)cn1` [Example 104, 5-(4-Cyclobutyl-2-fluoro-3-{[5-(trifluoromethyl)pyrimidin-2-yl]oxy}phenyl)pyrazin-2-amine] gave an IC50 [1] of 2810 nM and a Ki (human FLAP) of 100 nM.
`Nc1cnc(-c2ccc(C3CCC3)c(Oc3ccc(C(F)(F)F)nn3)c2F)cn1` [Example 106, 5-(4-Cyclobutyl-2-fluoro-3-{[6-(trifluoromethyl)pyridazin-3-yl]oxy}phenyl)pyrazin-2-amine] showed an IC50 [1] of 376 nM and a Ki (human FLAP) of 84 nM.
